Measured values from publication PMC11866186, “Novel Benzimidazole–Oxadiazole Derivatives as Anticancer Agents with VEGFR2 Inhibitory Activity: Design, Synthesis, In Vitro Anticancer Evaluation, and In Silico Studies” (ACS Omega, 2025).
Where two headings read alike, the source gives them in different places.

Tests used:
hTERT-HPNE cell line = assay: MTT assay, normal pancreas hTERT-HPNE cells; type: cell-based; details: normal human pancreas cells, 24 h, read-out: IC50 against hTERT-HPNE
Experimental: (§1) By comparing the compounds’ cytotoxic effects against tumor cell lines and normal cell lines, the drug safety parameter for the anticancer activity of the compounds was evaluated, thereby confirming their cytoprotective qualities. In this study, normal human lung (CCD-19Lu) and normal human pancreas (hTERT-HPNE) cell lines were used as controls. The selectivity index (SI) calculated for the compounds tested scales the IC50 values of the compounds against various tumor cell lines with the IC50 values against normal cell lines (Table 2). […] The differential selectivity indices underscore the importance of targeted therapeutic strategies and the potential for these compounds to provide selective anticancer effects with reduced toxicity to normal cells.
(§2) Many analyses are performed to determine cell proliferation. MTT analysis is one of the viability determination tests. According to the working mechanism of the method, the dye containing the tetrazolium ring reacts with the dehydrogenase enzymes in the cells, only to be reduced and broken down by the metabolic cells, turning into water-insoluble formazan crystals. Color changes associated with mitochondrial activity and resulting from the addition of a solvent as a result of the reaction are measured in the microplate reader as optical density data values.[30] Cells were planted in flat-bottomed, 96-well, sterile, lidded, disposable microplates with 1 × 10^4 cells per well in 200 μL of appropriate medium and were allowed to adhere to the plate bottom by incubating for 24 h. At the end of 24 h, 100 μL of medium was withdrawn, and test substances at different concentrations, prepared in 100 μL, were added. Following the substance application, after a 24 h incubation period, 20 μL of stock MTT solution (MTT solution dissolved in 5 mg/mL PBS and filtered before application) was added to each well and protected from light, and the incubation continued for 3 h. Then, the media of the cells were completely withdrawn, and 100 μL of DMSO was added to dissolve the formazan crystals. After shaking in the dark for 15 min, the optical densities (absorbance) of the color changes at 540–570 and 650 nm reference wavelengths were read in the microplate reader. The data were calculated and created in Microsoft Office Excel. For this purpose, first, the blind well value and the control groups of colored substances were removed from the optical readings. The averages of optical densities and % viability values were made from Excel formula calculations, and the results were discussed. The viability of the control group was assumed to be 100%, and all other viability values were calculated based on this (series were run in n = 5 replicates).

MCF-7 cell line = assay: MTT assay, MCF-7 cells; type: cell-based, human; details: Homo sapiens, MCF7, 24 h, read-out: IC50 against MCF-7
Experimental: (§3) The synthesized compounds 4a–4s were screened for their in vitro anticancer activity via the standard MTT assay using three human tumor cell lines, namely, the human lung adenocarcinoma cell line (A549), the human breast cancer cell line (MCF-7), and the human pancreas cell line (PANC-1). Cisplatin was used as a reference drug. […] When the structures of the compounds are evaluated, it is seen that the compounds are derived from two different sources. There are hydroxyl and methoxy substituents on the phenyl ring attached to the benzimidazole. It has also been derivatized using different groups on the phenyl ring close to oxadiazole. When the activities in the PANC-1 cell line are evaluated, it is seen that the activity of compounds bearing the 2,4-dichloro substituent is especially high.
as §2

A549 cell line = assay: MTT assay, A549 cells; type: cell-based, human; details: for IC50: Homo sapiens, A549, MTT, 24 h, read-out: IC50 against A549
Experimental: as §3, §2

CCD-19Lu cell line = assay: MTT assay, normal lung CCD-19Lu cells; type: cell-based; details: CCD 19Lu, normal human lung cells, 24 h, read-out: IC50 against CCD-19Lu
Experimental: as §1, §2

VEGFA = VEGFA immunofluorescent staining in MCF-7 cells; type: cell-based, human; details: 24 h treatment, anti-VEGFA antibody, semiquantitative scoring
Source text: An endogenous angiogenic growth factor called VEGFA primarily promotes the migration and proliferation of vascular endothelial cells.[2] Fluorescent staining degrees of the MCF-7 cancer cell line, marked with an anti-VEGFA antibody and immunofluorescence technique, were compared under light microscopy (Figure 4). […] Five different areas were selected for each group. All cell nuclei seen in the selected areas are compared with those stained VEGFA positive.
For VEGFA immunofluorescent staining, cells were grown on sterile coverslips in 6-well culture dishes. The cells were purified from the medium and washed with phosphate-buffered saline (PBS) (Sigma-Aldrich, Germany). The washed cells were fixed in ph 7.4% paraformaldehyde (Merk, Germany) for 20 min at room temperature. After fixation, the cells were washed two times with PBS for 5 min. For permeability, the cells were incubated in 0.1% Triton X-100 (Sigma-Aldrich, Germany) solution for 10 min. PBS was then washed for 5 min. After washing, Ultra V Block (Thermo Scientific, PBQ180830, USA) was dropped and waited at room temperature for 30 min to prevent nonspecific binding. […] Fluorescent microscopy (Olympus BX51, Japan) was employed by using suitable filters for fluorescence examination and then by making a registration.

PANC-1 cell line = assay: MTT assay, PANC-1 cells; type: cell-based, human; details: for IC50: MTT, 24 h, read-out: IC50 against PANC-1
Experimental: Cisplatin was used as a reference drug. […] There are hydroxyl and methoxy substituents on the phenyl ring attached to the benzimidazole. It has also been derivatized using different groups on the phenyl ring close to oxadiazole.
as §2

VEGFR2 = target: T1, VEGFR2 (Homo sapiens, UniProt P35968); assay: VEGFR2 Kinase Assay Kit inhibition; type: biochemical; details: read-out: IC50 against VEGFR2
T1 construct: purchased
Experimental: The VEGFR2 Kinase Assay Kit was used for VEGFR2 inhibition. The experiment was performed in vitro according to the kit procedure.[31]

T1 sequence (P35968 20-1356): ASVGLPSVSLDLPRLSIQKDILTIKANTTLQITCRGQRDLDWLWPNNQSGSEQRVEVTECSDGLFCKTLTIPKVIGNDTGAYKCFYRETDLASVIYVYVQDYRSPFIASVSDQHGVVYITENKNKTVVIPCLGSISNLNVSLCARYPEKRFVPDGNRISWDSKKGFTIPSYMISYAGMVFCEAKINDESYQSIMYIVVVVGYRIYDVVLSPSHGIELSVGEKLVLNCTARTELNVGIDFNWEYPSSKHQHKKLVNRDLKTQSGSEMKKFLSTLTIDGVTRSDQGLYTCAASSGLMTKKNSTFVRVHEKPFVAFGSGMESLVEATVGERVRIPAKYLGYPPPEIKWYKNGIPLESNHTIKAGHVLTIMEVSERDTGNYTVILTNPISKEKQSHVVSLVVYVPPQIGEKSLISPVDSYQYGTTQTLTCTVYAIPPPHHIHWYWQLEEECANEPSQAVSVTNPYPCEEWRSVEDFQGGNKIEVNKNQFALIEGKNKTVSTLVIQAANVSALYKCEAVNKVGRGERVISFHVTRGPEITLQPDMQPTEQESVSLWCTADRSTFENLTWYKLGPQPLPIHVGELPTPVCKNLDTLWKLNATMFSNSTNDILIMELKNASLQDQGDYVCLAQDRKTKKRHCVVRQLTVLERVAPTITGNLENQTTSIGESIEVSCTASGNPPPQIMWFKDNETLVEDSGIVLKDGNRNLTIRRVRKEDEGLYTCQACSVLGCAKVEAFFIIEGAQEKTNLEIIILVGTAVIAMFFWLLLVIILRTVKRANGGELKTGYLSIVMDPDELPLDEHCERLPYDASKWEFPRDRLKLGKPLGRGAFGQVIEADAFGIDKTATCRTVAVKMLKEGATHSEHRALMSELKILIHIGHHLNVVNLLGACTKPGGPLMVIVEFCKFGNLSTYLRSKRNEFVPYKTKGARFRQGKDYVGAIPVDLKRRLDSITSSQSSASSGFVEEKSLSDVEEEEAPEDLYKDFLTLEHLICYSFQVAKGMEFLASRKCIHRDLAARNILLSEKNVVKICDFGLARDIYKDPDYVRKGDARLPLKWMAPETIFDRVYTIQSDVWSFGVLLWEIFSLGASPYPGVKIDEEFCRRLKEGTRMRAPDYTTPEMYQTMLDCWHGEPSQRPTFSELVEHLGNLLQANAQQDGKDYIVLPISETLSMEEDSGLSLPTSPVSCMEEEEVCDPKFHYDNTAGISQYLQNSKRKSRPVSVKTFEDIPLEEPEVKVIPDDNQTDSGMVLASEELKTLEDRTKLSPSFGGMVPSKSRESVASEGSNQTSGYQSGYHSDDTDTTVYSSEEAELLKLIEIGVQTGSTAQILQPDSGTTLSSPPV

## COc1ccc(-c2nc3ccc(-c4nnc(SCC(=O)c5ccc(Cl)cc5Cl)o4)cc3[nH]2)cc1 [4r, 2-((5-(2-(4-Methoxyphenyl)-1H-benzimidazol-6-yl)-1,3,4-oxadiazol-2-yl)thio)-1-(2,4-dichlorophenyl)-ethanone]
hTERT-HPNE cell line
  IC50: 10900 nM
MCF-7 cell line
  IC50: 500 nM
A549 cell line
  IC50: 300 nM
CCD-19Lu cell line
  IC50: 800 nM
VEGFA
  VEGFA immunolocalization compared with control: less VEGFA immunolocalization

## COc1ccc(-c2nc3ccc(-c4nnc(SCC(=O)c5ccc(O)c(O)c5)o4)cc3[nH]2)cc1 [4s, 2-((5-(2-(4-Methoxyphenyl)-1H-benzimidazol-6-yl)-1,3,4-oxadiazol-2-yl)thio)-1-(3,4-dihydroxyphenyl)-ethanone]
hTERT-HPNE cell line
  IC50: 38300 nM
MCF-7 cell line
  IC50: 1200 nM
A549 cell line
  IC50: 1600 nM
A549 cell line; SI = cytotoxicity against CCD-19Lu cells/cytotoxicity against A549 cell line
  Selectivity index (A549): 0.81
CCD-19Lu cell line
  IC50: 1300 nM
VEGFA
  VEGFA immunolocalization compared with control: less VEGFA immunolocalization
PANC-1 cell line; Homo sapiens, PANC-1, 24 h
  IC50: 6700 nM
PANC-1 cell line
  IC50: 6600 nM
PANC-1 cell line; SI = cytotoxicity against hTERT-HPNE cells/cytotoxicity against PANC-1 cell line
  Selectivity index (PANC-1): 5.80
VEGFR2
  IC50: 502 ± 28 nM
